Data taken from ChEMBL document CHEMBL2040728, “New substituted 4H-chromenes as anticancer agents” (Bioorg Med Chem Lett, 2012).

Experiments:
LNCaP = experiment: Antiproliferative activity against human LNCAP cells after 96 hrs by SRB assay; assay type: functional, cell-based
[1] = Antiproliferative activity against human paclitaxel-resistant PC3-TxR cells after 96 hrs by SRB assay; assay type: functional, cell-based
PC-3 [2] = experiment: Antiproliferative activity against human PC3 cells after 96 hrs by SRB assay; assay type: functional, cell-based; conditions: PC-3, 96 h
[3] = Antiproliferative activity against human WM164 cells after 48 hrs by SRB assay; assay type: functional, cell-based; conditions: WM164, 48 h
A-375 = experiment: Antiproliferative activity against human A375 cells after 48 hrs by SRB assay; assay type: functional, cell-based; conditions: A-375, 48 h
[4] = Antiproliferative activity against human U87 cells after 5 days by MTT assay; assay type: functional, cell-based, U-87MG ATCC; conditions: U-87 MG, 120 h
[5] = Antiproliferative activity against human LN18 cells after 5 days by MTT assay; assay type: functional, cell-based; conditions: LN-18, 120 h
[6] = Antiproliferative activity against human A172 cells after 5 days by MTT assay; assay type: functional, cell-based; conditions: A 172, 120 h
[7] = Cytotoxicity against mouse primary astrocytes after 5 days by MTT assay; assay type: cell-based; conditions: Astrocyte, 120 h
CCRF-CEM = experiment: Cytotoxicity against human CCRF-CEM cells assessed as growth at 10 uM; assay type: functional; conditions: read-out: Activity
K562 = experiment: Cytotoxicity against human K562 cells assessed as growth at 10 uM; assay type: functional; conditions: read-out: Activity
HL-60(TB) = experiment: Cytotoxicity against human HL-60(TB) cells assessed as growth at 10 uM; assay type: functional; conditions: read-out: Activity
MOLT-4 = experiment: Cytotoxicity against human MOLT4 cells assessed as growth at 10 uM; assay type: functional; conditions: read-out: Activity
RPMI-8226 = experiment: Cytotoxicity against human RPMI8226 cells assessed as growth at 10 uM; assay type: functional; conditions: read-out: Activity
A549 = experiment: Cytotoxicity against human A549 cells assessed as growth at 10 uM; assay type: functional; conditions: read-out: Activity
EKVX = experiment: Cytotoxicity against human EKVX cells assessed as growth at 10 uM; assay type: functional; conditions: read-out: Activity
HOP-62 = experiment: Cytotoxicity against human HOP62 cells assessed as growth at 10 uM; assay type: functional; conditions: read-out: Activity
HOP-92 = experiment: Cytotoxicity against human HOP92 cells assessed as growth at 10 uM; assay type: functional; conditions: read-out: Activity
NCI-H226 = experiment: Cytotoxicity against human NCI-H226 cells assessed as growth at 10 uM; assay type: functional; conditions: read-out: Activity
NCI-H23 = experiment: Cytotoxicity against human NCI-H23 cells assessed as growth at 10 uM; assay type: functional; conditions: read-out: Activity
NCI-H322M = experiment: Cytotoxicity against human NCI-H322M cells assessed as growth at 10 uM; assay type: functional; conditions: read-out: Activity
NCI-H460 = experiment: Cytotoxicity against human NCI-H460 cells assessed as growth at 10 uM; assay type: functional; conditions: read-out: Activity
NCI-H522 = experiment: Cytotoxicity against human NCI-H522 cells assessed as growth at 10 uM; assay type: functional; conditions: read-out: Activity
COLO 205 = experiment: Cytotoxicity against human COLO205 cells assessed as growth at 10 uM; assay type: functional; conditions: read-out: Activity
HCC 2998 = experiment: Cytotoxicity against human HCC2998 cells assessed as growth at 10 uM; assay type: functional; conditions: read-out: Activity
HCT-116 = experiment: Cytotoxicity against human HCT116 cells assessed as growth at 10 uM; assay type: functional; conditions: read-out: Activity
HCT-15 = experiment: Cytotoxicity against human HCT15 cells assessed as growth at 10 uM; assay type: functional; conditions: read-out: Activity
HT-29 = experiment: Cytotoxicity against human HT-29 cells assessed as growth at 10 uM; assay type: functional; conditions: read-out: Activity
KM12 = experiment: Cytotoxicity against human KM12 cells assessed as growth at 10 uM; assay type: functional; conditions: read-out: Activity
SW-620 = experiment: Cytotoxicity against human SW620 cells assessed as growth at 10 uM; assay type: functional; conditions: read-out: Activity
SF-268 = experiment: Cytotoxicity against human SF268 cells assessed as growth at 10 uM; assay type: functional; conditions: read-out: Activity
SF-295 = experiment: Cytotoxicity against human SF295 cells assessed as growth at 10 uM; assay type: functional; conditions: read-out: Activity
SF-539 = experiment: Cytotoxicity against human SF539 cells assessed as growth at 10 uM; assay type: functional; conditions: read-out: Activity
SNB-19 = experiment: Cytotoxicity against human SNB19 cells assessed as growth at 10 uM; assay type: functional; conditions: read-out: Activity
SNB-75 = experiment: Cytotoxicity against human SNB75 cells assessed as growth at 10 uM; assay type: functional; conditions: read-out: Activity
U-251 = experiment: Cytotoxicity against human U251 cells assessed as growth at 10 uM; assay type: functional; conditions: read-out: Activity
LOX IMVI = experiment: Cytotoxicity against human LOXIMVI cells assessed as growth at 10 uM; assay type: functional; conditions: read-out: Activity
Malme-3M = experiment: Cytotoxicity against human MALME-3M cells assessed as growth at 10 uM; assay type: functional; conditions: read-out: Activity
M14 = experiment: Cytotoxicity against human M14 cells assessed as growth at 10 uM; assay type: functional; conditions: read-out: Activity
MDA-MB-435 = experiment: Cytotoxicity against human MDA-MB-435 cells assessed as growth at 10 uM; assay type: functional; conditions: read-out: Activity
SK-MEL-2 = experiment: Cytotoxicity against human SK-MEL-2 cells assessed as growth at 10 uM; assay type: functional; conditions: read-out: Activity
SK-MEL-28 = experiment: Cytotoxicity against human SK-MEL-28 cells assessed as growth at 10 uM; assay type: functional; conditions: read-out: Activity
SK-MEL-5 = experiment: Cytotoxicity against human SK-MEL-5 cells assessed as growth at 10 uM; assay type: functional; conditions: read-out: Activity
UACC-257 = experiment: Cytotoxicity against human UACC257 cells assessed as growth at 10 uM; assay type: functional; conditions: read-out: Activity
UACC-62 = experiment: Cytotoxicity against human UACC62 cells assessed as growth at 10 uM; assay type: functional; conditions: read-out: Activity
IGROV-1 = experiment: Cytotoxicity against human IGROV1 cells assessed as growth at 10 uM; assay type: functional; conditions: read-out: Activity
OVCAR-3 = experiment: Cytotoxicity against human OVCAR3 cells assessed as growth at 10 uM; assay type: functional; conditions: read-out: Activity
OVCAR-4 = experiment: Cytotoxicity against human OVCAR4 cells assessed as growth at 10 uM; assay type: functional; conditions: read-out: Activity
OVCAR-5 = experiment: Cytotoxicity against human OVCAR5 cells assessed as growth at 10 uM; assay type: functional; conditions: read-out: Activity
OVCAR-8 = experiment: Cytotoxicity against human OVCAR8 cells assessed as growth at 10 uM; assay type: functional; conditions: read-out: Activity
NCI/ADR-RES = experiment: Cytotoxicity against human NCI/ADR-RES cells assessed as growth at 10 uM; assay type: functional; conditions: read-out: Activity
SK-OV-3 = experiment: Cytotoxicity against human SKOV3 cells assessed as growth at 10 uM; assay type: functional; conditions: read-out: Activity
786-0 = experiment: Cytotoxicity against human 786-0 cells assessed as growth at 10 uM; assay type: functional; conditions: read-out: Activity
ACHN = experiment: Cytotoxicity against human ACHN cells assessed as growth at 10 uM; assay type: functional; conditions: read-out: Activity
CAKI-1 = experiment: Cytotoxicity against human Caki1 cells assessed as growth at 10 uM; assay type: functional; conditions: read-out: Activity
RXF 393 = experiment: Cytotoxicity against human RXF393 cells assessed as growth at 10 uM; assay type: functional; conditions: read-out: Activity
SN12C = experiment: Cytotoxicity against human SN12C cells assessed as growth at 10 uM; assay type: functional; conditions: read-out: Activity
TK-10 = experiment: Cytotoxicity against human TK10 cells assessed as growth at 10 uM; assay type: functional; conditions: read-out: Activity
UO-31 = experiment: Cytotoxicity against human UO31 cells assessed as growth at 10 uM; assay type: functional; conditions: read-out: Activity
PC-3 [8] = experiment: Cytotoxicity against human PC3 cells assessed as growth at 10 uM; assay type: functional; conditions: read-out: Activity
DU-145 = experiment: Cytotoxicity against human DU145 cells assessed as growth at 10 uM; assay type: functional; conditions: read-out: Activity
MCF7 = experiment: Cytotoxicity against human MCF7 cells assessed as growth at 10 uM; assay type: functional; conditions: read-out: Activity
MDA-MB-231 = experiment: Cytotoxicity against human MDA-MB-231 cells assessed as growth at 10 uM; assay type: functional; conditions: read-out: Activity
[9] = Cytotoxicity against human Hs 578T cells assessed as growth at 10 uM; assay type: functional; conditions: read-out: Activity
BT-549 = experiment: Cytotoxicity against human BT549 cells assessed as growth at 10 uM; assay type: functional; conditions: read-out: Activity
T47D = experiment: Cytotoxicity against human T47D cells assessed as growth at 10 uM; assay type: functional; conditions: read-out: Activity
MDA-MB-468 = experiment: Cytotoxicity against human MDA-MB-468 cells assessed as growth at 10 uM; assay type: functional; conditions: read-out: Activity

CN(C)c1ccc2c(c1)OC(N)=C(C#N)C2c1cccc2c(F)cccc12 (centres undefined)
IC50 (LNCaP): 250 nM
IC50 [1]: 190 nM
IC50 (PC-3 [2]): 420 nM
IC50 [3]: 220 nM
IC50 (A-375): 130 nM
IC50 [4]: 62.9 nM
IC50 [5]: 80.4 nM
IC50 [6]: 20.7 nM
IC50 [7]: 9440 nM
growth at 10 µM (CCRF-CEM): 11.3%
growth at 10 µM (K562): 6.85%
growth at 10 µM (HL-60(TB)): -18.4%
growth at 10 µM (MOLT-4): 13.9%
growth at 10 µM (RPMI-8226): 20.5%
growth at 10 µM (A549): 11.5%
growth at 10 µM (EKVX): 36.7%
growth at 10 µM (HOP-62): 39.8%
growth at 10 µM (HOP-92): -2.42%
growth at 10 µM (NCI-H226): 0%
growth at 10 µM (NCI-H23): -0.47%
growth at 10 µM (NCI-H322M): 45.4%
growth at 10 µM (NCI-H460): 1.28%
growth at 10 µM (NCI-H522): -17.5%
growth at 10 µM (COLO 205): -38.1%
growth at 10 µM (HCC 2998): 7.74%
growth at 10 µM (HCT-116): -5.99%
growth at 10 µM (HCT-15): 6.89%
growth at 10 µM (HT-29): -3.8%
growth at 10 µM (KM12): -0.79%
growth at 10 µM (SW-620): 23.5%
growth at 10 µM (SF-268): 24.8%
growth at 10 µM (SF-295): 8.13%
growth at 10 µM (SF-539): -7.29%
growth at 10 µM (SNB-19): 39%
growth at 10 µM (SNB-75): 22.3%
growth at 10 µM (U-251): 6.44%
growth at 10 µM (LOX IMVI): 5.96%
growth at 10 µM (Malme-3M): 49.6%
growth at 10 µM (M14): -1.53%
growth at 10 µM (MDA-MB-435): -32.4%
growth at 10 µM (SK-MEL-2): 27.9%
growth at 10 µM (SK-MEL-28): 54.1%
growth at 10 µM (SK-MEL-5): 13.7%
growth at 10 µM (UACC-257): 51.5%
growth at 10 µM (UACC-62): 38.9%
growth at 10 µM (IGROV-1): 32.3%
growth at 10 µM (OVCAR-3): -35.4%
growth at 10 µM (OVCAR-4): 27.3%
growth at 10 µM (OVCAR-5): 27.6%
growth at 10 µM (OVCAR-8): -23.4%
growth at 10 µM (NCI/ADR-RES): -6.17%
growth at 10 µM (SK-OV-3): 5.75%
growth at 10 µM (786-0): 16.8%
growth at 10 µM (ACHN): 27.6%
growth at 10 µM (CAKI-1): 22.9%
growth at 10 µM (RXF 393): 7.11%
growth at 10 µM (SN12C): 16.4%
growth at 10 µM (TK-10): 45.8%
growth at 10 µM (UO-31): 49.4%
growth at 10 µM (PC-3 [8]): 14.4%
growth at 10 µM (DU-145): -16.5%
growth at 10 µM (MCF7): 13.3%
growth at 10 µM (MDA-MB-231): 31.9%
growth at 10 µM [9]: 19.2%
growth at 10 µM (BT-549): -12.8%
growth at 10 µM (T47D): 61.8%
growth at 10 µM (MDA-MB-468): 27.6%

CN(C)c1ccc2c(c1)OC(N)=C(C#N)C2c1cccc2c(Br)cccc12 (centres undefined)
IC50 (LNCaP): 280 nM
IC50 [1]: 210 nM
IC50 (PC-3 [2]): 390 nM
IC50 [3]: 220 nM
IC50 (A-375): 140 nM

COc1cc2c(c(OC)c1OC)-c1ccc(OC)c(=O)cc1[C@@H](NC(C)=O)CC2 [COLCHICINE]
IC50 [1]: 20 nM
IC50 [3]: 30 nM

CN(C)c1ccc2c(c1)OC(N)=C(C#N)C2c1ccc(F)c2ccccc12 (centres undefined)
IC50 (LNCaP): 410 nM
IC50 [1]: 290 nM
IC50 (PC-3 [2]): 640 nM
IC50 [3]: 470 nM
IC50 (A-375): 280 nM
